From PMC2996881 (Biochemistry, 2010)

How the values were obtained:
[1] = target: T1, CgTHI6 (Nakaseomyces glabratus, UniProt Q6FV03); assay: X-ray crystal structure; assay type: binding; conditions: ThiM (C-terminal) domain ATP site; Mg2+
T1 sequence (Q6FV03 1-540): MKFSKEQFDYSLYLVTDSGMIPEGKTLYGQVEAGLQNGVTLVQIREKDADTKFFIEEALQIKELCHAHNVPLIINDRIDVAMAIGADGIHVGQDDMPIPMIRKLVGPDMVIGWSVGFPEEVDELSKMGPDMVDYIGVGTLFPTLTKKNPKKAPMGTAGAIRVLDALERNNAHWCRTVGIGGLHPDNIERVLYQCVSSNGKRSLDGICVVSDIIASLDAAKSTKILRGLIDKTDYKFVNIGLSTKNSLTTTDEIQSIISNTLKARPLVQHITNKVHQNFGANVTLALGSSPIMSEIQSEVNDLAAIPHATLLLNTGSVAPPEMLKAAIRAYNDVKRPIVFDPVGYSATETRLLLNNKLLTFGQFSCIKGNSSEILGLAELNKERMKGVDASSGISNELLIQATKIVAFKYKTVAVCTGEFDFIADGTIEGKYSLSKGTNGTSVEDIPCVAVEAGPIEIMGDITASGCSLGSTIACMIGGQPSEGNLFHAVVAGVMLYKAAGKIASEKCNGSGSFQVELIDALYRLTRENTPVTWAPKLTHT

[2] = target: T1, CgTHI6; assay: HPLC of Thz-P formation at […] nm; assay type: biochemical; conditions: ThiM activity; 2 mM ATP, 1.2 mM Thz, 2 mM MgSO4, room temperature, 2 h
[3] = target: T1, CgTHI6; assay: HPLC of ThMP formation at […] nm; assay type: biochemical; conditions: TPS activity; 1 mM HMP-PP, 1.2 mM Thz, 2 mM ATP, 2 mM MgSO4, room temperature, 2 h

Compound: Nc1ncnc2c1ncn2[C@@H]1O[C@H](COP(=O)(O)OP(=O)(O)CP(=O)(O)O)[C@@H](O)[C@H]1O [AMP-PCP]
- X-ray crystal structure (soaked, 3.3 A with Thz; 2.6 A with ThMP) [1]: The ATP binding site is inferred from the complex containing the non-hydrolizable ATP analogue, AMP-PCP

Compound: Nc1ncnc2c1ncn2[C@@H]1O[C@H](COP(=O)(O)OP(=O)(O)OP(=O)(O)O)[C@@H](O)[C@H]1O [ATP]
- HPLC of Thz-P formation at 261 nm [2]: the purified protein was incubated with Thz and ATP, formation of Thz-P was noted

Compound: Cc1ncc(COP(=O)(O)OP(=O)(O)O)c(N)n1 [HMP-PP, 4-amino-5-hydroxymethyl-2-methylpyrimidine pyrophosphate]
- HPLC of ThMP formation at 261 nm [3]: Incorporation of HMP-PP in the same reaction resulted in the production of ThMP
